Assay results taken from ChEMBL document CHEMBL3132828, “In vitro anticancer activity and SAR studies of triazolyl aminoacyl(peptidyl) penicillins” (Medchemcomm, 2014).
pIC50: −log10 of the molar value.

Tests used:
[1] = Selectivity ratio of IC50 for mouse NMuMG cells to IC50 for mouse B16F0 cells; type: ADME, cell-based; settings: NMuMG cells and B16F0 cells, read-out: Ratio IC50
[2] = Selectivity ratio of IC50 for mouse NMuMG cells to IC50 for human HeLa cells; type: ADME, cell-based; settings: NMuMG cells and HeLa cells, read-out: Ratio IC50
[3] = Cytotoxicity against mouse NMuMG cells assessed as hexosaminidase level after 72 hrs by colorimetric analysis; type: cell-based
[4] = Cytotoxicity against mouse B16F0 cells assessed as hexosaminidase level after 72 hrs by colorimetric analysis; type: functional, cell-based; settings: B16F0, 72 h
[5] = tested on: HeLa; test: Cytotoxicity against human HeLa cells assessed as hexosaminidase level after 72 hrs by colorimetric analysis; type: functional, cell-based
[6] = tested on: HeLa; test: Cytotoxicity against human HeLa cells assessed as growth inhibition at 20 uM after 72 hrs by colorimetric analysis relative to control; type: functional; settings: read-out: GI

## COC(=O)[C@H](Cc1ccccc1)NC(=O)c1cn(C[C@@H]2N3C(=O)C(Br)(Br)[C@H]3SC2(C)C)nn1
[1]
  selectivity ratio: 12.5
[2]
  selectivity ratio: 9
[3]
  pIC50: 3.90
[4]
  pIC50: 5.00
[5]
  pIC50: 4.85

## COC(=O)[C@H](Cc1ccc(O)cc1)NC(=O)[C@H](CC(C)C)NC(=O)c1cn(C[C@@H]2N3C(=O)C(Br)(Br)[C@H]3SC2(C)C)nn1
[6]
  inhibition of growth at 20 µM: < 50%
[1]
  selectivity ratio: > 7
[3]
  pIC50: < 3.80
[4]
  pIC50: 4.66

## COC(=O)[C@H](Cc1ccccc1)NC(=O)[C@H](CC(C)C)NC(=O)c1cn(C[C@@H]2N3C(=O)C(Br)(Br)[C@H]3SC2(C)C)nn1
[1]
  selectivity ratio: 34
[2]
  selectivity ratio: 34
[3]
  pIC50: 3.99
[4]
  pIC50: 5.52
[5]
  pIC50: 5.52

## CC[C@H](C)[C@H](NC(=O)c1cn(C[C@@H]2N3C(=O)C(Br)(Br)[C@H]3SC2(C)C)nn1)C(=O)N[C@@H](Cc1ccccc1)C(=O)OC
[1]
  selectivity ratio: 9
[2]
  selectivity ratio: 5.5
[3]
  pIC50: 4.08
[4]
  pIC50: 5.05
[5]
  pIC50: 4.82

## COC(=O)[C@H](Cc1ccccc1)NC(=O)[C@@H](NC(=O)c1cn(C[C@@H]2N3C(=O)C(Br)(Br)[C@H]3SC2(C)C)nn1)C(C)C
[1]
  selectivity ratio: 19
[2]
  selectivity ratio: 10.6
[3]
  pIC50: 3.77
[4]
  pIC50: 5.05
[5]
  pIC50: 4.80

## COC(=O)[C@H](Cc1ccccc1)NC(=O)[C@@H]1CCCN1C(=O)c1cn(C[C@@H]2N3C(=O)C(Br)(Br)[C@H]3SC2(C)C)nn1
[1]
  selectivity ratio: 5
[2]
  selectivity ratio: 3
[3]
  pIC50: 4.26
[4]
  pIC50: 4.96
[5]
  pIC50: 4.77

## COC(=O)[C@H](CC(C)C)NC(=O)[C@H](CC(C)C)NC(=O)c1cn(C[C@@H]2N3C(=O)C(Br)(Br)[C@H]3SC2(C)C)nn1
[1]
  selectivity ratio: 22
[2]
  selectivity ratio: 10
[3]
  pIC50: 4.06
[4]
  pIC50: 5.40
[5]
  pIC50: 5.05

## CC[C@H](C)[C@H](NC(=O)c1cn(C[C@@H]2N3C(=O)C(Br)(Br)[C@H]3SC2(C)C)nn1)C(=O)N[C@@H](Cc1ccc(O)cc1)C(=O)OC
[6]
  inhibition of growth at 20 µM: < 50%
[1]
  selectivity ratio: 5
[3]
  pIC50: 4.02
[4]
  pIC50: 4.70

## COC(=O)[C@H](Cc1ccccc1)NC(=O)[C@H](CCSC)NC(=O)c1cn(C[C@@H]2N3C(=O)C(Br)(Br)[C@H]3SC2(C)C)nn1
[1]
  selectivity ratio: 30.5
[2]
  selectivity ratio: 27.5
[3]
  pIC50: 3.56
[4]
  pIC50: 5.05
[5]
  pIC50: 5.00

## COC(=O)[C@H](Cc1ccccc1)NC(=O)[C@H](CC(C)C)NC(=O)c1cn(C[C@@H]2N3C(=O)C[C@H]3SC2(C)C)nn1
[1]
  selectivity ratio: 35.5
[2]
  selectivity ratio: 27
[3]
  pIC50: 3.45
[4]
  pIC50: 5.00
[5]
  pIC50: 4.89

## COC(=O)[C@H](Cc1ccccc1)NC(=O)[C@H](CC(C)C)NC(=O)c1cn(C[C@@H]2N3C(=O)C(Br)(Br)[C@H]3S(=O)(=O)C2(C)C)nn1
[1]
  selectivity ratio: 3.5
[2]
  selectivity ratio: 3.5
[3]
  pIC50: 5.15
[4]
  pIC50: 5.70
[5]
  pIC50: 5.70
